Reference: ChEMBL document CHEMBL4052762, “Synthesis and biological evaluation of pyrrole-based chalcones as CYP1 enzyme inhibitors, for possible prevention of cancer and overcoming cisplatin resistance” (Bioorg Med Chem Lett, 2017)

Columns and labels:
Homo sapiens [1] = species: Homo sapiens; test: Selectivity ratio of IC50 for human CYP2D6 bound to yeast microsomal membrane to IC50 for human CYP1A2 bound to yeast microsomal membrane
Homo sapiens [2] = species: Homo sapiens; test: Selectivity ratio of IC50 for human CYP2C19 bound to yeast microsomal membrane to IC50 for human CYP1A2 bound to yeast microsomal membrane
[3] = Selectivity ratio of IC50 for human CYP3A4 expressed in HEK293 cells to IC50 for human CYP1A1 expressed in HEK293 cells
Cytochrome P450 3A4 [4] = target: T1, Cytochrome P450 3A4 (Homo sapiens, UniProt P08684); test: Inhibition of human CYP3A4 expressed in HEK293 cells using fluorogenic dibenzylfluorescein as substrate preincubated for 30 mins followed by substrate addition measured for 60 mins by fluorescence assay; type: ADME, cell-based
Homo sapiens [5] = species: Homo sapiens; test: Selectivity ratio of IC50 for human CYP2C19 bound to yeast microsomal membrane to IC50 for human CYP1B1 bound to yeast microsomal membrane
Cytochrome P450 2C9 = Cytochrome P450 2C9 (Homo sapiens, UniProt P11712); test: Inhibition of human CYP2C9 expressed in HEK293 cells using fluorogenic 3-cyano-7-ethoxycoumarin as preincubated for 30 mins followed by substrate addition measured for 60 mins by fluorescence assay; type: ADME, cell-based
Cytochrome P450 2C19 = Cytochrome P450 2C19 (Homo sapiens, UniProt P33261); test: Inhibition of human CYP2C19 expressed in HEK293 cells using fluorogenic 3-cyano-7-ethoxycoumarin as substrate preincubated for 30 mins followed by substrate addition measured for 60 mins by fluorescence assay; type: ADME, cell-based
Cytochrome P450 1A2 = target: T2, Cytochrome P450 1A2 (Homo sapiens, UniProt P05177); test: Inhibition of human CYP1A2 expressed in HEK293 cells using fluorogenic 3-cyano-7-ethoxycoumarin as substrate preincubated for 30 mins followed by substrate addition measured for 60 mins by fluorescence assay; type: cell-based
T2 sequence (P05177 whole entry): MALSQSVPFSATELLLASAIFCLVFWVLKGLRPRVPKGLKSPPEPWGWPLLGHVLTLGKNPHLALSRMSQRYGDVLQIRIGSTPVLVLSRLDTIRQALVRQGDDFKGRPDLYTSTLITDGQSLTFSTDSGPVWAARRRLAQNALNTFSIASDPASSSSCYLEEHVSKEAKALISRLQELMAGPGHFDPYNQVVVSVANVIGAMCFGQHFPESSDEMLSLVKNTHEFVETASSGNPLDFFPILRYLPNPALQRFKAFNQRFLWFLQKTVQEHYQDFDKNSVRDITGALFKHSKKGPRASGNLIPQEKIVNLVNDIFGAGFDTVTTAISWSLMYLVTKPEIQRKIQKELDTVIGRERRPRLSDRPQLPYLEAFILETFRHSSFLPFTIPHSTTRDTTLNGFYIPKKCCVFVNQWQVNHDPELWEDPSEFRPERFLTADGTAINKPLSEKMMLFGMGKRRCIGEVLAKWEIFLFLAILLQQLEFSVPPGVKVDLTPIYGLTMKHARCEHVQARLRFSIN

[6] = target: T3, Aryl hydrocarbon receptor (Homo sapiens, UniProt P35869); test: Antagonist activity at human AhR expressed in Saccharomyces cerevisiae W303-1A (ATCC 208352) transformed with an episomal plasmid containing a minimal CYC1 promoter, with a concatemer of five XRE enhancer sequences, linked to eGFP reporter gene and co-expressing ARNT assessed as inhibition of B[a]P agonist induced XRE-driven eGFP expression by measuring eGFP units at 5 uM after 18 hrs by …
T3 sequence (P35869 whole entry): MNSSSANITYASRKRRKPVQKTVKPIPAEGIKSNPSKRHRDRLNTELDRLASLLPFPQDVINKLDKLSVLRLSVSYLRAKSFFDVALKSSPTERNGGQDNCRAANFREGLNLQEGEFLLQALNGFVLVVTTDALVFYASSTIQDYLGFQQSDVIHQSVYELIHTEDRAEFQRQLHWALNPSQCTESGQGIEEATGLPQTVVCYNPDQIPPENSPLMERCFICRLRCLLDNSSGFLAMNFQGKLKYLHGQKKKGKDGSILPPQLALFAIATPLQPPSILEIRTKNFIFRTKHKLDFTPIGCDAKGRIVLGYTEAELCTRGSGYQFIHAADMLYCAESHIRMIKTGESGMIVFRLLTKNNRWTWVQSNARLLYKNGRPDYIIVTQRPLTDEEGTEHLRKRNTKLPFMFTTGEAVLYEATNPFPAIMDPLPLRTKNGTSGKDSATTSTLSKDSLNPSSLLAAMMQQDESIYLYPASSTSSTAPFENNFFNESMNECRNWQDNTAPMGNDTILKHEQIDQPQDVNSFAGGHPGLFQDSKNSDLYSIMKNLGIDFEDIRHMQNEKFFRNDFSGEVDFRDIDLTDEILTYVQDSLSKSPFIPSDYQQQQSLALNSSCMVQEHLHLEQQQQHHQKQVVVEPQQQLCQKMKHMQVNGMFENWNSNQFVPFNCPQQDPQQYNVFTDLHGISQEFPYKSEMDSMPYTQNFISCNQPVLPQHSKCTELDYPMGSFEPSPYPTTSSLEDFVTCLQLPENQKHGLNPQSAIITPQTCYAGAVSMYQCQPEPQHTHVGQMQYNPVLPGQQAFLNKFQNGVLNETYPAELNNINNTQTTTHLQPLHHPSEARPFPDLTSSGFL

[7] = target: T3, Aryl hydrocarbon receptor; test: Antagonist activity at human AhR expressed in Saccharomyces cerevisiae W303-1A (ATCC 208352) transformed with an episomal plasmid containing a minimal CYC1 promoter, with a concatemer of five XRE enhancer sequences, linked to eGFP reporter gene and co-expressing ARNT assessed as inhibition of B[a]P agonist induced XRE-driven eGFP expression by measuring eGFP units at 10 uM after 18 hrs by …
Cytochrome P450 1B1 = target: T4, Cytochrome P450 1B1 (Homo sapiens, UniProt Q16678); test: Inhibition of human CYP1B1 bound to yeast microsomal membrane using 7-ethoxyresorufin as substrate after 10 mins by fluorescence assay
T4 sequence (Q16678 whole entry): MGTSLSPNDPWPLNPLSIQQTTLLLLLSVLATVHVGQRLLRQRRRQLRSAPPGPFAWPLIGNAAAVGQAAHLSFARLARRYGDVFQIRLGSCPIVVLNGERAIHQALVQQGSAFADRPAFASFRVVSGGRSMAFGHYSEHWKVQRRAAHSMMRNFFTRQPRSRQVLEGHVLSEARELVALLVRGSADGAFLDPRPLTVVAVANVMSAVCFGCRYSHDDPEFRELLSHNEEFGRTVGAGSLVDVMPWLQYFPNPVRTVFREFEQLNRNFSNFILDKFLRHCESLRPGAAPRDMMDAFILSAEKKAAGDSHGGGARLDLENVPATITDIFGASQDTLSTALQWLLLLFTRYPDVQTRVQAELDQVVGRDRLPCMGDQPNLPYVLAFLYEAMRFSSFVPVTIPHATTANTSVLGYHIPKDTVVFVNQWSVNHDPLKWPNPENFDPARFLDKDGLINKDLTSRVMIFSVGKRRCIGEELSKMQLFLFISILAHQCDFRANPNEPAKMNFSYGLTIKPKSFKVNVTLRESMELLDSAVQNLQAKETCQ

Cytochrome P450 3A4 [8] = target: T1, Cytochrome P450 3A4; test: Inhibition of human CYP3A4 bound to yeast microsomal membrane using dibenzylfluorescein as substrate after 10 mins by fluorescence assay; type: ADME
Cytochrome P450 2D6 = Cytochrome P450 2D6 (Homo sapiens, UniProt P10635); test: Inhibition of human CYP2D6 bound to yeast microsomal membrane using 7-ethoxy-methyloxy-3-cyanocoumarin as substrate after 10 mins by fluorescence assay; type: ADME
Homo sapiens [9] = species: Homo sapiens; test: Selectivity ratio of IC50 for human CYP2D6 bound to yeast microsomal membrane to IC50 for human CYP1B1 bound to yeast microsomal membrane
[10] = target: T3, Aryl hydrocarbon receptor; test: Antagonist activity at human AhR expressed in Saccharomyces cerevisiae W303-1A (ATCC 208352) transformed with an episomal plasmid containing a minimal CYC1 promoter, with a concatemer of five XRE enhancer sequences, linked to eGFP reporter gene and co-expressing ARNT assessed as inhibition of B[a]P agonist induced XRE-driven eGFP expression after 18 hrs by fluorescence assay; conditions: for inhibition (INH): human, 18 h

Chain of Cytochrome P450 2D6 (P10635 whole entry): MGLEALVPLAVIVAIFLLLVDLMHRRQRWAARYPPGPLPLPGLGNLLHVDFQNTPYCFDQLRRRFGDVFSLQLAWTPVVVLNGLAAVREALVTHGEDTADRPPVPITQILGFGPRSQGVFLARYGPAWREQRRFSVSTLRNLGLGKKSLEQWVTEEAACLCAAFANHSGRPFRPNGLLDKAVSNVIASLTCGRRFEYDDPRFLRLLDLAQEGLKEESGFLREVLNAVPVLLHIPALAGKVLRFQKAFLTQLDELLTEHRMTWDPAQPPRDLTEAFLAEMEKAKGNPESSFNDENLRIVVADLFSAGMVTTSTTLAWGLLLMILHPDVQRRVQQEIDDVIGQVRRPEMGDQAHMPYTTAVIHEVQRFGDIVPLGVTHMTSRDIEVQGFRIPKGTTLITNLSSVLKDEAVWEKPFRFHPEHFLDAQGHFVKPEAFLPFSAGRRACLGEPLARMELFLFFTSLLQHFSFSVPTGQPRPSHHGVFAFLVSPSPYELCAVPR
Chain of Cytochrome P450 2C9 (P11712 whole entry): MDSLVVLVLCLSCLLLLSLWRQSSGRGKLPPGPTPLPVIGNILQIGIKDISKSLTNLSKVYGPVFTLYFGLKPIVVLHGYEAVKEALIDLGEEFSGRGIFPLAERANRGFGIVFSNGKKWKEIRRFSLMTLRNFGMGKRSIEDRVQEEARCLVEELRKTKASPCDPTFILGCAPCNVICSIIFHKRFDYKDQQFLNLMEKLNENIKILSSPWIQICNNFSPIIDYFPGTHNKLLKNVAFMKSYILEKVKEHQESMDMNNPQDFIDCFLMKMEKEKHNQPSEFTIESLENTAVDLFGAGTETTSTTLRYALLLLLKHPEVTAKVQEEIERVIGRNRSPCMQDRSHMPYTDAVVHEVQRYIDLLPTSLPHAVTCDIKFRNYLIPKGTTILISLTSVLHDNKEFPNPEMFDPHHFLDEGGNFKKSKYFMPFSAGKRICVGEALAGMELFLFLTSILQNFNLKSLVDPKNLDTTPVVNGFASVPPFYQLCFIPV
T1 sequence (P08684 whole entry): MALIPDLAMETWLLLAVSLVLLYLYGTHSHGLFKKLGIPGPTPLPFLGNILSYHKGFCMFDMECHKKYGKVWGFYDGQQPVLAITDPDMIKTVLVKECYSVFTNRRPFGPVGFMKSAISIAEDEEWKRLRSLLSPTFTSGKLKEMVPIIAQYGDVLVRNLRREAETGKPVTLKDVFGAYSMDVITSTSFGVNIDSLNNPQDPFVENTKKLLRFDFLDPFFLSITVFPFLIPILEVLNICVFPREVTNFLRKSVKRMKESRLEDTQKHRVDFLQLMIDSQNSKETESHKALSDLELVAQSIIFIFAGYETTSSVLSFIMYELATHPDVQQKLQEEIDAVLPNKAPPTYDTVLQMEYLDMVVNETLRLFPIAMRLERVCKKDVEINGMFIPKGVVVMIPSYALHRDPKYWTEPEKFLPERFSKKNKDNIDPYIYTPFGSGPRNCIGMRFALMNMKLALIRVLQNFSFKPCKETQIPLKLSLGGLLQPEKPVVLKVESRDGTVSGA
Chain of Cytochrome P450 2C19 (P33261 whole entry): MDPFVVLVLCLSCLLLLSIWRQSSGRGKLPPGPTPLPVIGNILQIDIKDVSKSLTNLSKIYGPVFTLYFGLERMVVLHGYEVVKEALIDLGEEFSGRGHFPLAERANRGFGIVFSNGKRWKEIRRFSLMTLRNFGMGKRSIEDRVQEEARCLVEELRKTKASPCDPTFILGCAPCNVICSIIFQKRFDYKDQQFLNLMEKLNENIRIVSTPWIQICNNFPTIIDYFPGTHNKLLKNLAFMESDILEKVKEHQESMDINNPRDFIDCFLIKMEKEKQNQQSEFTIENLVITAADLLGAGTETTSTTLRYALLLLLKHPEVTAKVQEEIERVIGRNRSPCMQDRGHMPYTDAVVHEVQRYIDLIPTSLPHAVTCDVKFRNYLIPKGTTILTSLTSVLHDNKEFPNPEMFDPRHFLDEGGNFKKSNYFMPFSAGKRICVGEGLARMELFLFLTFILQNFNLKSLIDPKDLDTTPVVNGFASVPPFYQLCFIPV

## COc1ccccc1/C=C/C(=O)c1ccc[nH]1
Homo sapiens [1]
  Ratio IC50: > 20
Homo sapiens [2]
  Ratio IC50: > 20
[3]
  Ratio IC50: >20
Cytochrome P450 3A4 [4]
  IC50: > 10 µM
Homo sapiens [5]
  Ratio IC50: > 20
Cytochrome P450 2C9
  IC50: > 10 µM
Cytochrome P450 2C19
  IC50: > 10 µM
Cytochrome P450 1A2
  IC50: 1.1 µM
[6]
  Activity: 220 U
[7]
  Activity: 150 U
Cytochrome P450 1B1
  IC50: 0.9 µM
Cytochrome P450 3A4 [8]
  IC50: > 20 µM
Cytochrome P450 2D6
  IC50: 20 µM
Homo sapiens [9]
  Ratio IC50: > 20
[10]
  IC50: 1.5 µM
  inhibition (INH): Dose-dependent effect

## O=C(/C=C/c1ccccc1Cl)c1ccc[nH]1
Homo sapiens [1]
  Ratio IC50: > 20
Homo sapiens [2]
  Ratio IC50: > 20
[3]
  Ratio IC50: >20
Cytochrome P450 3A4 [4]
  IC50: > 10 µM
Homo sapiens [5]
  Ratio IC50: > 20
Cytochrome P450 2C9
  IC50: > 10 µM
Cytochrome P450 2C19
  IC50: > 10 µM
Cytochrome P450 1A2
  IC50: 0.9 µM
[6]
  Activity: 770 U
[7]
  Activity: 455 U
Cytochrome P450 1B1
  IC50: 0.2 µM
Cytochrome P450 3A4 [8]
  IC50: > 20 µM
Cytochrome P450 2D6
  IC50: 12 µM
Homo sapiens [9]
  Ratio IC50: > 20
[10]
  IC50: 7.6 µM
  inhibition (INH): Dose-dependent effect

## O=C(/C=C/c1ccc(OC(F)(F)F)cc1)c1ccc[nH]1
Cytochrome P450 3A4 [4]
  IC50: > 20 µM
Cytochrome P450 2C9
  IC50: > 20 µM
Cytochrome P450 2C19
  IC50: > 20 µM
Cytochrome P450 1A2
  IC50: > 20 µM
[6]
  Activity: 955 U
[7]
  Activity: 955 U
Cytochrome P450 1B1
  IC50: > 20 µM
Cytochrome P450 3A4 [8]
  IC50: > 20 µM
Cytochrome P450 2D6
  IC50: 16 µM
